From paper PMC10547880, “Synthesis and biological evaluation of novel 1,2,3-triazole hybrids of cabotegravir: identification of potent antitumor activity against lung cancer” (Frontiers in Pharmacology, 2023)
Entries after “also recorded” stand apart in the source; their conditions may differ.

Experiments:
Type in all cases: cell-based, Human
LO2 cells = assay: CCK8 cell viability, normal cell line LO2; conditions: LO2 normal liver cells, 25 μM, 72 h
Procedure: (§1) Human lung cancer cell line H460 and H1299, human liver normal cell line LO2 were bought from ATCC. DMEM or RPMI 1640 was used as the cell culture medium with 10% FBS and 1% penicillin/streptomycin. Cells were maintained in an incubator with 37°C humidified atmosphere and 5% CO2.
(§2) Cell viability and IC50 values were determined using the CCK8 assay kit. Cells were seeded at a density of 5 × 10^3 cells per well in a 96-well plate. After overnight adhesion, 25 μM of compounds or vehicle control DMSO which all dissolved in the culture medium were added to cells and cultured for 48 h or 72 h. CCK8 reagent, dissolved in the medium, was then added to cells and incubated for 1 h. The absorbance at 450 nm was measured using a microplate spectrophotometer (Thermo). Cell viability was calculated, with the untreated group taken as 100%. For IC50 values determination, different concentrations (0, 0.4 μM, 2 μM, 10 μM, 20 μM, 50 μM) of compounds were added to cells for 72 h. Subsequent CCK8 measurement allowed the calculation of inhibition percentage based on cell viability. The IC50 values were computed by the prism statistical software. The CCK-8 assay was conducted three times and the repetitions in each time were at least three. All the values were expressed as Mean ± SD, p < 0.05 was considered statistically significant.
(§3) In order to assess the potential cytotoxicity of the synthesized compounds, we selected two types of human non-small-cell lung cancer cell line, H460 and H1299. Cell viability and cytotoxicity were evaluated using the CCK8 assay ([Xu et al., 2018]). The cells were treated with 25 μM of compounds 5a-5s and 6a-6i for 48h and 72 h. […] In contrast, no compounds managed to reduce H1299 cell viability to less than 50%, yet compounds 5i, 5m, 6h and 6i achieved cell viability rates below 70%. […] It is worth noting that minimal effects on the cell viability of the normal cell line LO2 were observed when exposed to these compounds. Further, we determined the half-maximal inhibitory concentration (IC50) of selected compounds against H460 cells, the results of which were summarized in Table 3.

H460 cells [1] = assay: CCK8 cell viability and IC50 measurement, H460
Procedure: as §1, §2, §3

H1299 cells [2] = assay: Live/dead cell staining (Calcein-AM/PI), H1299; conditions: H1299, 5, 10, 20 μM, 24 h
Procedure: Cells with a density of 5 × 10^3 cells per well were seeded in a 96-well plate. After overnight incubation, cells were treated with different concentrations (0, 5 μM, 10 μM, 20 μM) of compounds for 24 h. The LIVE/DEAD Assay Kit was used to dye cells, and cells were observed and photographed under a fluorescent microscope. Live and Dead cell numbers were counted and the ratio of dead to living cells were calculated. Values were expressed as Mean ± SEM, p < 0.05 was considered statistically significant. Data were performed using Graph Prim 7.0.
(§4) To assess the anti-proliferative effects of compound 5i, live/dead cell staining was performed using Calcein Acetoxymethyl Ester (Calcein-AM) and Propidium Iodide (PI) dyes ([Xie et al., 2023]). Calcein-AM highlights live cells through green fluorescence emission, while PI identifies dead cells with damaged membrane integrity, producing red fluorescence. H460 and H1299 cells were treated with different concentrations (0, 5, 10 and 20 μM) of compound 5i for 24 h. After 24 h treatment, cells were stained with Calcein-AM and PI, diluted in cultured medium, and incubated for an hour in dark. Then the fluorescence was detected and photographed using a fluorescent microscope. […] In addition, we also performed plate clone formation assay ([Xu et al., 2018]) to further investigate the anti-proliferation ability of compound 5i. […]

H460 cells [3] = assay: Plate clone formation assay, H460; conditions: H460, 2-32 μM, particularly 16 μM and 32 μM
Procedure: Cells with the density of 500 cells per well were seeded in a 6-well plate. Different concentrations (0, 2 μM, 4 μM, 8 μM, 16 μM and 32 μM) of compounds were added to cells and maintained for a 72- hour duration. And cells were cultured until the monoclonal appeared. Afterward, cells were fixed with 4% paraformaldehyde and stained by Giemsa dye. The plate clone numbers were photographed and counted using a microscope. Values were expressed as Mean ± SEM, p < 0.05 was considered statistically significant. Data were performed using Graph Prim 7.0.
as §4

H460 cells [4] = assay: Western blot of protein expression, H460; conditions: H460, 2, 4, 8 μM, 72 h
Procedure: (§5) Western blot was used to analyze protein expressions. Cells were cultured in 12-well plates and treated with different concentrations (0, 2, 4, 8 μM) of compounds for 72 h. Cell proteins were extracted using RIPA buffer with protease/phosphatase inhibitor cocktail (CST). 10%–15% sodium dodecyl sulfate polyacrylamide gel electrophoresis was used to separate proteins and nitrocellulose membranes (Millipore) was used to collected proteins. Antibodies used in western bolt were LC3 (3868s, CST), caspase 3 (9662s, CST), cyclin D (2922s, CST), cyclin E (20808s, CST), β-Catenin (9562s, CST), γH2AX (9718s, CST), PARP (46D11, CST), and β-actin (4967s, CST). Values were expressed as Mean ± SEM, p < 0.05 was considered statistically significant. Data were performed using Graph Prim 7.0.
(§6) Western blot analysis was performed to assess the protein expressions involved in cell growth and cell death processes. H460 and H1299 cells were treated with different concentrations of compound 5i, and whole cell proteins were collected for analysis. […] Autophagy has both tumor suppression and growth promotion effects in cancers, depending on the cellular context and cancer stage. On the one hand, autophagy inhibits cancer development via eliminating dysfunctional proteins and damaged mitochondria. On the other hand, autophagy can promote tumor growth by providing recycled metabolites to support cancer cell survival and growth ([Wang et al., 2023]). […] But in H1299 cells, compound 5i exerted its anticancer ability by suppressing cell division and proliferation.

H1299 cells [5] = assay: Western blot of protein expression, H1299; conditions: H1299, 2, 4, 8 μM, 72 h
Procedure: as §5, §6

H1299 cells [6] = assay: CCK8 cell viability, H1299; conditions: H1299, 25 μM, 48 h
Procedure: as §1, §2, §3

`COc1c2n(cc(C(=O)Nc3cccc(-c4cn(-c5ccccc5OC(F)(F)F)nn4)c3)c1=O)CC1OCC(C)N1C2=O` (centres unmarked) [Compound 5i] was tested, and the Cell viability (LO2 cells) was 99.80%, the “cell proliferation inhibition rate” value (H460 cells [1]; H460, 72-h treatment) was “exceed 50%” and the IC50 (H460 cells [1]; H460, 72 h, CCK8) was 6.06 ± 1.8 µM. The “live and dead cell numbers” value (H1299 cells [2]) was “decrease in live cell numbers alongside a substantial rise in dead cells”, the “number of cell clones” value (H460 cells [3]) was “decreased” and the “Cyclin D expression” value (H460 cells [4]) was “no significant differences”. For the same compound, the “Cyclin E expression” value (H460 cells [4]) was “no significant differences”, the LC3 expression (H460 cells [4]) was “pronounced elevation; also recorded: significant increase” and the PARP expression (H460 cells [4]) was “no significant differences”. For the same compound, the caspase3 expression (H460 cells [4]) was “no significant differences”, the β-catenin expression (H460 cells [4]) was “no significant differences” and the γ-H2AX expression (H460 cells [4]) was “no significant differences”. The “Cyclin D level” value (H1299 cells [5]) was “decrease”, the “Cyclin E level” value (H1299 cells [5]) was “decrease” and the LC3 expression (H1299 cells [5]) was “no significant differences”. For the same compound, the PARP expression (H1299 cells [5]) was “remained unaffected”, the “caspase3 expression” value (H1299 cells [5]) was “no significant differences” and the β-catenin expression (H1299 cells [5]) was “remained unaltered”. For the same compound, the γ-H2AX expression (H1299 cells [5]) was “pronounced elevation; also recorded: increased expression” and the Cell viability (H1299 cells [6]) was 90.47%.
